Assay results taken from patent US10570122B2, “Compounds with anti-tumoral activity” (AB Science, priority 2015, dated 2020).
Entries after “also recorded” stand apart in the source; their conditions may differ.

Legend:
BXPC3 = experiment: CellTiter-Blue cell-based survival/proliferation assay, BXPC3; settings: Homo sapiens, BXPC-3; BXPC3 pancreas tumor cell line, 48 h
Summary of the method: (§1)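 Compounds, diluted tenfold serially over 0–10 μM, are applied to 1·10^4 seeded cells per well for 48 h at 37 °C. Resorufin formed during a further 4 h with CellTiter-Blue is detected by fluorescence emission at 590 nm.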

OPM2 = experiment: CellTiter-Blue cell-based survival/proliferation assay, OPM2; settings: Homo sapiens, OPM-2, Myeloma cell line OPM2, 48 h, read-out: Anti-tumoral activity (measured IC50) OPM2
Summary of the method: as §1

REC1 = experiment: CellTiter-Blue cell-based survival/proliferation assay, REC1; settings: Homo sapiens, Lymphoma cell line REC1, 48 h, read-out: Anti-tumoral activity (measured IC50) REC1
Summary of the method: as §1

A498 = experiment: CellTiter-Blue cell-based survival/proliferation assay, A498; settings: Homo sapiens; A498 kidney tumor cell line, 48 h
Summary of the method: as §1

A4513 = experiment: CellTiter-Blue cell-based survival/proliferation assay, A4513; settings: Homo sapiens; A4513 Ewing cell line, 48 h
Summary of the method: as §1

KARPAS299 = experiment: CellTiter-Blue cell-based survival/proliferation assay, KARPAS299; settings: Homo sapiens, KARPAS-299, Lymphoma cell line KARPAS299, 48 h, read-out: Anti-tumoral activity (measured IC50) KARPAS299
Summary of the method: as §1

MESSA = experiment: CellTiter-Blue cell-based survival/proliferation assay, MESSA; settings: Homo sapiens, MES-SA; MESSA ovary tumor cell line, 48 h
Summary of the method: as §1

PLCPRF5 = experiment: CellTiter-Blue cell-based survival/proliferation assay, PLCPRF5; settings: Homo sapiens, PLC-PRF-5; PLC_PRF5 liver tumor cell line, 48 h
Summary of the method: as §1

SW579 = experiment: CellTiter-Blue cell-based survival/proliferation assay, SW579; settings: Homo sapiens; SW579 head & neck tumor cell line, 48 h
Summary of the method: as §1

HEP2 = experiment: CellTiter-Blue cell-based survival/proliferation assay, HEP2; settings: Homo sapiens, HEp-2; HEP2 head & neck tumor cell line, 48 h
Summary of the method: as §1

U2OS = experiment: CellTiter-Blue cell-based survival/proliferation assay, U2OS; settings: Homo sapiens; U2OS osteosarcoma cell line, 48 h
Summary of the method: as §1

HCT116 = experiment: CellTiter-Blue cell-based survival/proliferation assay, HCT116; settings: Homo sapiens, HCT-116; HCT116 colorectal tumor cell line, 48 h
Summary of the method: as §1

HUT78 = experiment: CellTiter-Blue cell-based survival/proliferation assay, HUT78; settings: Homo sapiens, Lymphoma cell line HUT78, 48 h, read-out: Anti-tumoral activity (measured IC50) HUT78
Summary of the method: as §1

HL60 = experiment: CellTiter-Blue cell-based survival/proliferation assay, HL60; settings: Homo sapiens, HL-60, Leukemia cell line HL60, 48 h, read-out: Anti-tumoral activity (measured IC50) HL60
Summary of the method: as §1

H1299 = experiment: CellTiter-Blue cell-based survival/proliferation assay, H1299; settings: Homo sapiens, NCI-H1299; H1299 lung tumor cell line, 48 h
Summary of the method: as §1

PANC1 = experiment: CellTiter-Blue cell-based survival/proliferation assay, PANC1; settings: Homo sapiens, PANC-1; PANC_1 pancreas tumor cell line, 48 h
Summary of the method: as §1

DLD1 = experiment: CellTiter-Blue cell-based survival/proliferation assay, DLD1; settings: Homo sapiens, DLD-1; DLD_1 colorectal tumor cell line, 48 h
Summary of the method: as §1

PC3 = experiment: CellTiter-Blue cell-based survival/proliferation assay, PC3; settings: Homo sapiens, PC-3; PC3 prostate tumor cell line, 48 h
Summary of the method: as §1

DU145 = experiment: CellTiter-Blue cell-based survival/proliferation assay, DU145; settings: Homo sapiens, DU-145; DU145 prostate tumor cell line, 48 h
Summary of the method: as §1

A375 = experiment: CellTiter-Blue cell-based survival/proliferation assay, A375; settings: Homo sapiens, A-375; A375 melanoma cell line, 48 h
Summary of the method: as §1

TOV112D = experiment: CellTiter-Blue cell-based survival/proliferation assay, TOV112D; settings: Homo sapiens; TOV112D ovary tumor cell line, 48 h
Summary of the method: as §1

HEPG2 = experiment: CellTiter-Blue cell-based survival/proliferation assay, HEPG2; settings: Homo sapiens; HEPG2 liver tumor cell line, 48 h
Summary of the method: as §1

MELWO = experiment: CellTiter-Blue cell-based survival/proliferation assay, MELWO; settings: Homo sapiens; MEL_WO melanoma cell line, 48 h
Summary of the method: as §1

HGC27 = experiment: CellTiter-Blue cell-based survival/proliferation assay, HGC27; settings: Homo sapiens, HGC-27; HGC27 stomach tumor cell line, 48 h
Summary of the method: as §1

AGS = experiment: CellTiter-Blue cell-based survival/proliferation assay, AGS; settings: Homo sapiens; AGS stomach tumor cell line, 48 h
Summary of the method: as §1

CLS354 = experiment: CellTiter-Blue cell-based survival/proliferation assay, CLS354; settings: Homo sapiens, CLS-354; CLS354_4 head & neck tumor cell line, 48 h
Summary of the method: as §1

A549 = experiment: CellTiter-Blue cell-based survival/proliferation assay, A549; settings: Homo sapiens; A549 lung tumor cell line, 48 h
Summary of the method: as §1

ACHN = experiment: CellTiter-Blue cell-based survival/proliferation assay, ACHN; settings: Homo sapiens; ACHN kidney tumor cell line, 48 h
Summary of the method: as §1

U118 = experiment: CellTiter-Blue cell-based survival/proliferation assay, U118; settings: Homo sapiens; U118 glioblastoma cell line, 48 h
Summary of the method: as §1

U87MG = experiment: CellTiter-Blue cell-based survival/proliferation assay, U87MG; settings: Homo sapiens, U-87 MG; U87_MG glioblastoma cell line, 48 h
Summary of the method: as §1

CALU6 = experiment: CellTiter-Blue cell-based survival/proliferation assay, CALU6; settings: Homo sapiens, Calu-6; CALU6 lung tumor cell line, 48 h
Summary of the method: as §1

MDAMB231 = experiment: CellTiter-Blue cell-based survival/proliferation assay, MDAMB231; settings: Homo sapiens, MDA-MB-231; MDAMB231 breast tumor cell line, 48 h
Summary of the method: as §1

[1] = system: human kinases (456 kinases); experiment: KINOMEscan in vitro kinase profiling; format: binding
Experimental: An in vitro kinase profiling was conducted in order to evidence the absence of protein kinase inhibition by the compounds of the invention.
DiscoveRx (Ambit Biosciences) has developed a high-throughput system (KINOMEscan™) for screening of compounds against large numbers of human kinases (456 kinases).
The compounds of the invention were screened at the concentration of 1 μM, and results for primary screen binding interactions were reported as percent control (% Ctrl), where lower numbers indicate stronger hits. DMSO is used as a negative control (100% Ctrl) while a high affinity compound is used as a positive control (0% Ctrl). % Ctrl is calculated as follow:
[formula] Selectivity Score or S-score is a quantitative measure of compound selectivity. It is calculated by dividing the number of kinases that compounds bind to by the total number of distinct kinases tested, excluding mutant variants. S(10)=(number of kinases with % Ctrl<10)/(number of kinases tested), S(1)=(number of kinases with % Ctrl<1)/(number of kinases tested).

BT20 = experiment: CellTiter-Blue cell-based survival/proliferation assay, BT20; settings: Homo sapiens, BT-20; BT20 breast tumor cell line, 48 h
Summary of the method: as §1

CCOCc1ccc(C)c(Nc2nc(-c3ccc(N4CCNC4=O)cc3)cs2)c1 [Example 003, 1-{4-[2-(5-Ethoxymethyl-(2-methyl-phenylamino))-thiazol-4-yl]-phenyl}-imidazolidin-2-one]
IC50 (BXPC3): ≤ 100 nM
IC50 (OPM2): ≤ 100 nM
IC50 (REC1): ≤ 100 nM
IC50 (A498): ≤ 100 nM
IC50 (A4513): ≤ 100 nM
IC50 (KARPAS299): ≤ 100 nM
IC50 (MESSA): 100 to 500 nM
IC50 (PLCPRF5): > 1000 nM
IC50 (SW579): > 1000 nM
IC50 (HEP2): > 1000 nM
IC50 (U2OS): > 1000 nM
IC50 (HCT116): 500 to 1000 nM
IC50 (HUT78): ≤ 100 nM
IC50 (HL60): ≤ 100 nM
IC50 (H1299): > 1000 nM
IC50 (PANC1): > 1000 nM
IC50 (DLD1): ≤ 100 nM
IC50 (PC3): ≤ 100 nM
IC50 (DU145): > 1000 nM
IC50 (A375): ≤ 100 nM
IC50 (TOV112D): ≤ 100 nM
IC50 (HEPG2): > 1000 nM
IC50 (MELWO): ≤ 100 nM
IC50 (HGC27): > 1000 nM
IC50 (AGS): > 1000 nM
IC50 (CLS354): ≤ 100 nM
IC50 (A549): > 1000 nM
IC50 (ACHN): ≤ 100 nM
IC50 (U118): > 1000 nM
IC50 (U87MG): > 1000 nM
IC50 (CALU6): > 1000 nM
IC50 (MDAMB231): ≤ 100 nM
Interaction with the 456 kinases tested ([1]; screened at 1 μM): do not efficiently interact
Number of hits/number of kinases, S1 ([1]; tested at 1 μM, S(1): kinases with % Ctrl<1): 1/456
S-score, S1 ([1]; tested at 1 μM, S(1)=(number of kinases with % Ctrl<1)/(number of kinases tested)): 0.002
Number of hits/number of kinases, S10 ([1]; tested at 1 μM, S(10): kinases with % Ctrl<10): 4/456
S-score, S10 ([1]; tested at 1 μM, S(10)=(number of kinases with % Ctrl<10)/(number of kinases tested)): 0.009
Kinase targets, S1 ([1]; tested at 1 μM, kinases with % Ctrl<1): PDGFRB
Kinase targets, S10 ([1]; tested at 1 μM, kinases with % Ctrl<10): KIT, KIT V559D,; also recorded: KIT L576P
IC50 (BT20): > 1000 nM

CCOCc1ccc(C)c(Nc2nc(-c3ccc(-n4cccn4)cc3)cs2)c1 [Example 015, (5-Ethoxymethyl-2-methyl-phenyl)-[4-(4-pyrazol-1-yl-phenyl)-thiazol-2-yl]-amine]
IC50 (BXPC3): > 1000 nM
IC50 (OPM2): 100 to 500 nM
IC50 (REC1): ≤ 100 nM
IC50 (A498): 500 to 1000 nM
IC50 (A4513): 100 to 500 nM
IC50 (KARPAS299): ≤ 100 nM
IC50 (MESSA): > 1000 nM
IC50 (PLCPRF5): > 1000 nM
IC50 (SW579): > 1000 nM
IC50 (HEP2): > 1000 nM
IC50 (U2OS): > 1000 nM
IC50 (HCT116): > 1000 nM
IC50 (HUT78): ≤ 100 nM
IC50 (HL60): ≤ 100 nM
IC50 (H1299): > 1000 nM
IC50 (PANC1): > 1000 nM
IC50 (DLD1): > 1000 nM
IC50 (PC3): ≤ 100 nM
IC50 (DU145): > 1000 nM
IC50 (A375): > 1000 nM
IC50 (TOV112D): 500 to 1000 nM
IC50 (HEPG2): > 1000 nM
IC50 (MELWO): > 1000 nM
IC50 (HGC27): > 1000 nM
IC50 (AGS): > 1000 nM
IC50 (CLS354): ≤ 100 nM
IC50 (A549): > 1000 nM
IC50 (ACHN): > 1000 nM
IC50 (U118): > 1000 nM
IC50 (U87MG): > 1000 nM
IC50 (CALU6): > 1000 nM
IC50 (MDAMB231): > 1000 nM
IC50 (BT20): > 1000 nM
